For this test, the target named is T1, full-length human PKCι (Homo sapiens, UniProt P41743).
T1 construct: Recombinant, full-length human PKCι expressed in Sf21 insect cells is also commercially available; purchased EMD Millipore; host or cells: Sf21 insect cells (baculovirus)
T1 sequence (P41743 1-596): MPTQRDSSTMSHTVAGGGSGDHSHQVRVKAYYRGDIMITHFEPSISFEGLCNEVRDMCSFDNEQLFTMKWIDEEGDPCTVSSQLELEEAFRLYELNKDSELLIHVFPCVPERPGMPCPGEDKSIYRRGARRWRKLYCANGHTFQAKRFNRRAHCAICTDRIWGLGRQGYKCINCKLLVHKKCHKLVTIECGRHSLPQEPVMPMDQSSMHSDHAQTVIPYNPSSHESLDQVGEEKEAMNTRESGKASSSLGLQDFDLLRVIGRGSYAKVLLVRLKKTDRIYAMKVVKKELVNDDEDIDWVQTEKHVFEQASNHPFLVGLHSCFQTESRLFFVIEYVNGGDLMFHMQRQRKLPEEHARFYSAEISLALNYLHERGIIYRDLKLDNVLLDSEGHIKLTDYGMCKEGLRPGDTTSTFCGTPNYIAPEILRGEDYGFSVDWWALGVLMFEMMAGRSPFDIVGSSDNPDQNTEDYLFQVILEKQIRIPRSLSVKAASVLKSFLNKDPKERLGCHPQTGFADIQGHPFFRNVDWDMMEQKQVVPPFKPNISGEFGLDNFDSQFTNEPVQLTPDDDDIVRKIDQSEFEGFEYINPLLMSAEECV
The test is described as follows: PKCι IC50 IMAP fluorescence polarisation assay, full-length enzyme, 150 μM ATP. The note with it: read-out: IC50 in IMAP assay against full length PKCi at 150 μM ATP. The class given is biochemical. The method in brief: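 IMAP fluorescence polarisation kinase assay: 15 pM baculovirus-expressed human PKCiota with 100 nM FAM-pseudosubstrate peptide and 150 μM ATP, 1 h at 25 °C. IMAP detection reagent then 2 h at 25 °C before FP measurement. Inhibition referenced to no-compound and no-enzyme controls for IC50 fitting.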

This note sets out measurements from patent US10414763B2 (CANCER RESEARCH TECHNOLOGY LIMITED, priority 2014, dated 2019).

Regarding `NC[C@@H]1CCN(c2nc(-c3ccnc4[nH]c5ccccc5c34)nc3cncc(C4CCC4)c23)C1` [Example 248, C-{(S)-1-[5-Cyclobutyl-2-(9H-pyrido[2,3-b]indol-4-yl)-pyrido[3,4-d]pyrimidin-4-yl]-pyrrolidin-3-yl}-methylamine], the IC50 was less than 100 nM. The figure for `O[C@H]1CNCC[C@H]1Nc1nc(-c2ccnc(Nc3nc(F)cc(F)c3F)c2)nc2cncc(C3CC3)c12` (racemic) [Example 307, rac-(3S,4R)-4-{5-Cyclopropyl-2-[2-(3,4,6-trifluoro-pyridin-2-ylamino)-pyridin-4-yl]-pyrido[3,4-d]pyrimidin-4-ylamino}-piperidin-3-ol] is less than 100 nM; for `FC(F)(F)c1cc2c(-c3nc(N4CC[C@H]5NCC[C@H]54)c4c(C5CCC5)cncc4n3)ccnc2[nH]1` (racemic) [Example 54, (±)-5-Cyclobutyl-4-(3,6-cis)-hexahydro-pyrrolo[3,2-b]pyrrol-1-yl-2-(2-trifluoromethyl-1H-pyrrolo[2,3-b]pyridin-4-yl)-pyrido[3,4-d]pyrimidine] it is less than 100 nM. On to `Clc1ccccc1-c1cc2c(-c3nc(N4CCC5NCCCC54)c4c(C5CC5)cncc4n3)ccnc2[nH]1` (stereo not shown) [Example 129, 2-[2-(2-Chloro-phenyl)-1H-pyrrolo[2,3-b]pyridin-4-yl]-5-cyclopropyl-4-(octahydro-pyrrolo[3,2-b]pyridin-1-yl)-pyrido [3,4-d]pyrimidine], for which the IC50 is less than 100 nM. Take `CC1CNCCC1Nc1nc(-c2ccnc(Nc3nc(F)c(F)cc3F)c2)nc2cncc(C3CCC3)c12` (stereo not shown) [Example 126, {5-Cyclobutyl-2-[2-(3,5,6-trifluoro-pyridin-2-ylamino)-pyridin-4-yl]-pyrido[3,4-d]pyrimidin-4-yl}-(3-methyl-piperidin-4-yl)-amine]: the IC50 is less than 100 nM. On to `C[C@@]1(O)CNCC[C@H]1Nc1nc(-c2ccnc3[nH]c(-c4cc(F)ccc4Cl)cc23)nc2cncc(C3CC3)c12` (racemic) [Example 354, rac-(3R,4R)-4-{2-[2-(2-Chloro-5-fluoro-phenyl)-1H-pyrrolo[2,3-b]pyridin-4-yl]-5-cyclopropyl-pyrido[3,4-d]pyrimidin-4-ylamino}-3-methyl-piperidin-3-ol], for which the IC50 was less than 100 nM. In the case of `CC1(C)CNCC[C@@H]1Nc1nc(-c2ccnc3[nH]c(-c4cccnc4)cc23)nc2cncc(C(F)(F)F)c12` [Example 372, N-[(4S)-3,3-dimethyl-4-piperidyl]-2-[2-(3-pyridyl)-1H-pyrrolo[2,3-b]pyridin-4-yl]-5-(trifluoromethyl) pyrido[3,4-d]pyrimidin-4-amine] it was less than 100 nM; in that of `CC1(C)CNCC[C@@H]1Nc1nc(-c2ccnc(Nc3ncc(Cl)cc3Cl)c2)nc2cncc(C3CCC3)c12` [Example 337, 5-Cyclobutyl-2-[2-[(3,5-dichloro-2-pyridyl)amino]-4-pyridyl]-N-[(4S)-3,3-dimethyl-4-piperidyl]pyrido[3,4-d]pyrimidin-4-amine], less than 100 nM; in that of `Clc1ccc(Cl)c(-c2cc3c(-c4nc(N5CCC6NCCCC65)c5c(C6CC6)cncc5n4)ccnc3[nH]2)c1` (stereo not shown) [Example 142, 5-Cyclopropyl-2-[2-(2,5-dichloro-phenyl)-1H-pyrrolo[2,3-b]pyridin-4-yl]-4-(octahydro-pyrrolo [3,2-b]pyridin-1-yl)-pyrido[3,4-d]pyrimidine], less than 100 nM. In the case of `OC[C@H]1CNCCN1c1nc(-c2ccnc3[nH]c(C(F)(F)F)cc23)nc2cncc(C3CC3)c12` [Example 6, {(R)-1-[5-Cyclopropyl-2-(2-trifluoromethyl-1H-pyrrolo[2,3-b]pyridin-4-yl)-pyrido[3,4-d]pyrimidin-4-yl]-piperazin-2-yl}-methanol] it was 100 to 1000 nM; in that of `c1cncc(-c2cc3c(-c4nc(N5CCC6CNCCC65)c5c(C6CC6)cncc5n4)ccnc3[nH]2)c1` (stereo not shown) [Example 356, 5-Cyclopropyl-4-(octahydro-pyrrolo[3,2-c]pyridin-1-yl)-2-(2-pyridin-3-yl-1H-pyrrolo[2,3-b]pyridin-4-yl)-pyrido[3,4-d]pyrimidine], less than 100 nM. The figure for `CC1(C)CNCCC1Nc1nc(-c2ccnc(Nc3cccnc3F)c2)nc2cncc(C3CCC3)c12` (stereo not shown) [Example 92, {5-Cyclobutyl-2-[2-(2-fluoro-pyridin-3-ylamino)-pyridin-4-yl]-pyrido[3,4-d]pyrimidin-4-yl}-(3,3-dimethyl-piperidin-4-yl)-amine] is less than 100 nM; for `c1ccc(Nc2cc(-c3nc(N4CCC5NCCC54)c4c(C5CCC5)cncc4n3)ccn2)cc1` (stereo not shown) [Example 102, {4-[5-Cyclobutyl-4-(hexahydro-pyrrolo[3,2-b]pyrrol-1-yl)-pyrido[3,4-d]pyrimidin-2-yl]-pyndin-2-yl}-phenyl-amine] it is less than 100 nM; for `C[C@@H]1CNCC[C@@H]1Nc1nc(-c2ccnc(Nc3ncc(F)cc3F)c2)nc2cncc(C3CC3)c12` (racemic) [Example 300, {5-Cyclopropyl-2-[2-(3,5-difluoro-pyridin-2-ylamino)-pyridiri-4-yl]-pyrido[3,4-d]pyrimidin-4-yl}-(rac-(3R,4S)-3-methyl-piperidin-4-yl)-amine] it is 100 to 1000 nM. `CC1CC(Nc2nc(-c3ccnc(Nc4ncccc4F)c3)nc3cncc(C4CC4)c23)CC(C)N1` (stereo not shown) [Example 260, {5-Cyclopropyl-2-[2-(3-fluoro-pyridin-2-ylamino)-pyridin-4-yl]-pyrido[3,4-d]pyrimidin-4-yl}-(2,6-dimethyl-piperidin-4-yl)-amine]: the IC50 was in the range of 100 to 1000 nM. `CC1CNCCC1Nc1nc(-c2ccnc(Nc3nc(F)ccc3F)c2)nc2cncc(C3CCC3)c12` (stereo not shown) [Example 127, {5-Cyclobutyl-2-[2-(3,6-difluoro-pyridin-2-ylamino)-pyridin-4-yl]-pyrido[3,4-d]pyrimidin-4-yl}-(3-methyl-piperidin-4-yl)-amine]: the half-maximal inhibitory concentration (IC50) was less than 100 nM.

For the compound `C[C@@H]1CNCC[C@@H]1Nc1nc(-c2ccnc(Nc3nc(F)ccc3F)c2)nc2cncc(C3CC3)c12` (racemic) [Example 224, (±)-{5-Cyclopropyl-2-[2-(3,6-difluoro-pyridin-2-ylamino)-pyridin-4-yl]-pyrido[3,4-d]pyrimidin-4-yl}-((3,4-cis)-3-methyl-piperidin-4-yl)-amine], the IC50 is less than 100 nM.

`CC1(C)CNCC[C@@H]1Nc1nc(-c2cccc(Nc3nc(F)ccc3F)c2)nc2cncc(C3CCC3)c12` [Example 315, {5-Cyclobutyl-2-[3-(3,6-difluoro-pyridin-2-ylamino)-phenyl]-pyrido[3,4-d]pyrimidin-4-yl}-((S)-3,3-dimethyl-piperidin-4-yl)-amine]: the IC50 was in the range of 100 to 1000 nM. The figure for `CN(c1nc(-c2ccnc(Nc3ccccc3)c2)nc2cncc(C3CCC3)c12)C1CCNCC1(C)C` (stereo not shown) [Example 110, [5-Cyclobutyl-2-(2-phenylamino-pyridin-4-yl)-pyrido[3,4-d]pyrimidin-4-yl]-(3,3-dimethyl-piperidin-4-yl)-methyl-amine] is less than 100 nM.

In the case of `CC1(C)CNCCC1Nc1nc(-c2ccnc(Nc3ncccc3F)c2)nc2cncc(C3CC3)c12` (stereo not shown) [Example 49, {5-Cyclopropyl-2-[2-(3-fluoro-pyridin-2-ylamino)-pyridin-4-yl]-pyrido[3,4-d]pyrimidin-4-yl}-(3,3-dimethyl-piperidin-4-yl)-amine], the IC50 is less than 100 nM. Consider `O[C@@H]1CCN(c2nc(-c3ccnc4[nH]c5ccccc5c34)nc3cncc(C4CCC4)c23)C1` [Example 252, (R)-1-[5-Cyclobutyl-2-(9H-pyrido[2,3-b]indol-4-yl)-pyrido[3,4-d]pyrimidin-4-yl]-pyrrolidin-3-ol], for which the IC50 fell in the range of 1000 to 10000 nM. The figure for `O[C@H]1CNCC[C@H]1Nc1nc(-c2ccnc3[nH]c4ccccc4c23)nc2cncc(C(F)(F)F)c12` (racemic) [Example 349, rac-(3S,4R)-4-[2-(9H-Pyrido[2,3-b]indol-4-yl)-5-trifluoromethyl-pyrido[3,4-d]pyrimidin-4-ylamino]-piperidin-3-ol] is 100 to 1000 nM. With `Cc1cc2c(-c3nc(N4CC[C@]5(O)CNCC[C@H]45)c4c(C5CCC5)cncc4n3)ccnc2[nH]1` (racemic) [Example 117, (±)-(3aS,7aS)-1-[5-Cyclobutyl-2-(2-methyl-1H-pyrrolo[2,3-b]pyridin-4-yl)-pyrido[3,4-d]pyrimidin-4-yl]-octahydro-pyrrolo [3,2-c]pyridin-3a-ol], the concentration for half-maximal inhibition (IC50) is less than 100 nM. In the case of `Fc1ccc(F)c(Nc2cc(-c3nc(N4CCC5NCCCC54)c4c(C5CCC5)cncc4n3)ccn2)n1` (stereo not shown) [Example 124, {4-[5-Cyclobutyl-4-(octahydro-pyrrolo[3,2-b]pyridin-1-yl)-pyrido[3,4-d]pyrimidin-2-yl]-pyridin-2-yl}-(3,6-difluoro-pyridin-2-yl)-amine] it was less than 100 nM; in that of `FC(F)(F)c1cc2c(-c3nc(N4CC[C@H]5NCCC[C@H]54)c4c(C5CCC5)cncc4n3)ccnc2[nH]1` (racemic) [Example 80, (±)-5-Cyclobutyl-4-(3,7-cis)-octahydro-pyrrolo[3,2-b]pyridin-1-yl-2-(2-trifluoromethyl-1H-pyrrolo[2,3-b]pyridin-4-yl)-pyrido[3,4-d]pyrimidine], less than 100 nM.

A word on the IC50: it is the concentration at which inhibition is half-maximal.
